Measured values: ChEMBL document CHEMBL3885861, “Open TG-GATES”

Species on record: Rattus norvegicus
Test: Open TG-GATES - Regimen: Single
Assay type: toxicity, organism-based, Sprague-Dawley
Parameters: regimen Single, gender Male, age 6 weeks
Details: in vivo, po, route gavage; for APTT / Bas / Eos / Fbg / Hb / Ht / Lym / MCH / MCHC / MCV / Mono / Neu / PT / Plat / RBC / Ret / WBC: tissue Blood; for KIDNEY_L / KIDNEY_R / KIDNEY_TOTAL: tissue Kidney; for LIVER: tissue Liver; for ALP / ALT / AST / BUN / CRE / Ca / Cl / DBIL / GLC / IP / K / LDH / Na / PL / RALB / TBIL / TC / TG / TP / gamma-GTP: tissue Plasma
[1] = 300 mg/kg, 3 h, dose level Middle
[2] = 300 mg/kg, 6 h, dose level Middle
[3] = 300 mg/kg, 9 h, dose level Middle
[4] = 300 mg/kg, 24 h, dose level Middle
[5] = 1000 mg/kg, 3 h, dose level High
[6] = 1000 mg/kg, 6 h, dose level High
[7] = 1000 mg/kg, 9 h, dose level High
[8] = 1000 mg/kg, 24 h, dose level High

COC(=O)C1=C(C)NC(C)=C(C(=O)OC)C1c1ccccc1[N+](=O)[O-] [NIFEDIPINE]
APTT [1]: 16.6 s
Bas [1]: 0.2%
Eos [1]: 0.6%
Fbg [1]: 299.2 mg/dL
Hb [1]: 12.8 g/dL
Ht [1]: 39.1%
Lym [1]: 75.2%
MCH [1]: 21 pg
MCHC [1]: 32.9%
MCV [1]: 63.8 fL
Mono [1]: 3.8%
Neu [1]: 19.8%
PT [1]: 15.1 s
Plat [1]: 126.5 x10_4/uL
RBC [1]: 613 x10_4/ul
Ret [1]: 9.4%
WBC [1]: 113.9 x10_2/uL
KIDNEY_L [1]: 0.9 g
KIDNEY_R [1]: 0.9 g
KIDNEY_TOTAL [1]: 1.8 g
LIVER [1]: 8.1 g
ALP [1]: 1571 IU/L
ALT [1]: 46.2 IU/L
AST [1]: 74.8 IU/L
BUN [1]: 27.6 mg/dL
CRE [1]: 0.3 mg/dL
Ca [1]: 11.6 mg/dL
Cl [1]: 96.8 meq/L
DBIL [1]: 0.01 mg/dL
GLC [1]: 263.6 mg/dL
IP [1]: 9.5 mg/dL
K [1]: 4.7 meq/L
LDH [1]: 85 IU/L
Na [1]: 134.6 meq/L
PL [1]: 135.4 mg/dL
RALB [1]: 2.6 g/dL
TBIL [1]: 0.034 mg/dL
TC [1]: 84.2 mg/dL
TG [1]: 33.6 mg/dL
TP [1]: 5.3 g/dL
gamma-GTP [1]: 1 IU/L
TERMINAL_BW [2]: 205.3 g
APTT [2]: 16.3 s
Bas [2]: 0%
Eos [2]: 0.6%
Fbg [2]: 293.2 mg/dL
Hb [2]: 13.1 g/dL
Ht [2]: 40%
Lym [2]: 75%
MCH [2]: 20.7 pg
MCHC [2]: 32.6%
MCV [2]: 63.5 fL
Mono [2]: 3.8%
Neu [2]: 19.8%
PT [2]: 14.9 s
Plat [2]: 123.8 x10_4/uL
RBC [2]: 632 x10_4/ul
Ret [2]: 10%
WBC [2]: 101.9 x10_2/uL
KIDNEY_L [2]: 0.9 g
KIDNEY_R [2]: 0.9 g
KIDNEY_TOTAL [2]: 1.8 g
LIVER [2]: 7.9 g
ALP [2]: 1503.6 IU/L
ALT [2]: 51.2 IU/L
AST [2]: 78.8 IU/L
BUN [2]: 32.2 mg/dL
CRE [2]: 0.2 mg/dL
Ca [2]: 11.3 mg/dL
Cl [2]: 97.6 meq/L
DBIL [2]: 0.006 mg/dL
GLC [2]: 221.4 mg/dL
IP [2]: 10.7 mg/dL
K [2]: 5.1 meq/L
LDH [2]: 78.8 IU/L
Na [2]: 136.6 meq/L
PL [2]: 150.4 mg/dL
RALB [2]: 2.6 g/dL
TBIL [2]: 0.042 mg/dL
TC [2]: 90.6 mg/dL
TG [2]: 19.4 mg/dL
TP [2]: 5.5 g/dL
gamma-GTP [2]: 1.2 IU/L
TERMINAL_BW [3]: 206.1 g
APTT [3]: 17.3 s
Bas [3]: 0%
Eos [3]: 0.6%
Fbg [3]: 288 mg/dL
Hb [3]: 13.1 g/dL
Ht [3]: 39.7%
Lym [3]: 78.2%
MCH [3]: 21 pg
MCHC [3]: 33%
MCV [3]: 63.7 fL
Mono [3]: 3.6%
Neu [3]: 16.4%
PT [3]: 14.6 s
Plat [3]: 124.2 x10_4/uL
RBC [3]: 623 x10_4/ul
Ret [3]: 9.8%
WBC [3]: 94.7 x10_2/uL
KIDNEY_L [3]: 0.9 g
KIDNEY_R [3]: 0.9 g
KIDNEY_TOTAL [3]: 1.8 g
LIVER [3]: 7.3 g
ALP [3]: 1317.2 IU/L
ALT [3]: 51.2 IU/L
AST [3]: 76.6 IU/L
BUN [3]: 26.8 mg/dL
CRE [3]: 0.2 mg/dL
Ca [3]: 10.9 mg/dL
Cl [3]: 100.8 meq/L
DBIL [3]: 0.01 mg/dL
GLC [3]: 193.4 mg/dL
IP [3]: 11.1 mg/dL
K [3]: 5 meq/L
LDH [3]: 72.4 IU/L
Na [3]: 137.4 meq/L
PL [3]: 156.4 mg/dL
RALB [3]: 2.5 g/dL
TBIL [3]: 0.046 mg/dL
TC [3]: 91 mg/dL
TG [3]: 28.2 mg/dL
TP [3]: 5.4 g/dL
gamma-GTP [3]: 1 IU/L
TERMINAL_BW [4]: 198.5 g
APTT [4]: 16.6 s
Bas [4]: 0%
Eos [4]: 1%
Fbg [4]: 298.6 mg/dL
Hb [4]: 13.1 g/dL
Ht [4]: 40%
Lym [4]: 67%
MCH [4]: 20.4 pg
MCHC [4]: 32.7%
MCV [4]: 62.2 fL
Mono [4]: 3.6%
Neu [4]: 27%
PT [4]: 14.1 s
Plat [4]: 128.1 x10_4/uL
RBC [4]: 643.8 x10_4/ul
Ret [4]: 9%
WBC [4]: 95.9 x10_2/uL
KIDNEY_L [4]: 0.9 g
KIDNEY_R [4]: 0.9 g
KIDNEY_TOTAL [4]: 1.7 g
LIVER [4]: 7.8 g
ALP [4]: 1579.6 IU/L
ALT [4]: 43.8 IU/L
AST [4]: 68.4 IU/L
BUN [4]: 12 mg/dL
CRE [4]: 0.2 mg/dL
Ca [4]: 10.6 mg/dL
Cl [4]: 107.4 meq/L
DBIL [4]: 0.012 mg/dL
GLC [4]: 160.4 mg/dL
IP [4]: 8.3 mg/dL
K [4]: 3.9 meq/L
LDH [4]: 73.8 IU/L
Na [4]: 145 meq/L
PL [4]: 133.6 mg/dL
RALB [4]: 2.8 g/dL
TBIL [4]: 0.042 mg/dL
TC [4]: 77.8 mg/dL
TG [4]: 41.2 mg/dL
TP [4]: 5.8 g/dL
gamma-GTP [4]: 0.8 IU/L
TERMINAL_BW [5]: 207.9 g
APTT [5]: 16.6 s
Bas [5]: 0%
Eos [5]: 1%
Fbg [5]: 285.2 mg/dL
Hb [5]: 13 g/dL
Ht [5]: 39.9%
Lym [5]: 69.8%
MCH [5]: 20.8 pg
MCHC [5]: 32.6%
MCV [5]: 63.8 fL
Mono [5]: 4.6%
Neu [5]: 24.2%
PT [5]: 14.9 s
Plat [5]: 122.2 x10_4/uL
RBC [5]: 626 x10_4/ul
Ret [5]: 9.7%
WBC [5]: 108.1 x10_2/uL
KIDNEY_L [5]: 0.9 g
KIDNEY_R [5]: 0.9 g
KIDNEY_TOTAL [5]: 1.9 g
LIVER [5]: 8.4 g
ALP [5]: 1381.2 IU/L
ALT [5]: 51 IU/L
AST [5]: 74.8 IU/L
BUN [5]: 26.2 mg/dL
CRE [5]: 0.2 mg/dL
Ca [5]: 11.8 mg/dL
Cl [5]: 97.2 meq/L
DBIL [5]: 0.008 mg/dL
GLC [5]: 260.8 mg/dL
IP [5]: 9.2 mg/dL
K [5]: 5 meq/L
LDH [5]: 99.4 IU/L
Na [5]: 134.8 meq/L
PL [5]: 141.4 mg/dL
RALB [5]: 2.5 g/dL
TBIL [5]: 0.036 mg/dL
TC [5]: 81.6 mg/dL
TG [5]: 46.4 mg/dL
TP [5]: 5.2 g/dL
gamma-GTP [5]: 1.6 IU/L
TERMINAL_BW [6]: 205.1 g
APTT [6]: 16.5 s
Bas [6]: 0.2%
Eos [6]: 0.4%
Fbg [6]: 282.6 mg/dL
Hb [6]: 13 g/dL
Ht [6]: 39.6%
Lym [6]: 77%
MCH [6]: 20.6 pg
MCHC [6]: 32.8%
MCV [6]: 62.7 fL
Mono [6]: 3.6%
Neu [6]: 18%
PT [6]: 14.9 s
Plat [6]: 123.3 x10_4/uL
RBC [6]: 632.4 x10_4/ul
Ret [6]: 9.2%
WBC [6]: 92.1 x10_2/uL
KIDNEY_L [6]: 0.9 g
KIDNEY_R [6]: 0.9 g
KIDNEY_TOTAL [6]: 1.9 g
LIVER [6]: 7.3 g
ALP [6]: 1242.8 IU/L
ALT [6]: 50.6 IU/L
AST [6]: 83 IU/L
BUN [6]: 40.2 mg/dL
CRE [6]: 0.2 mg/dL
Ca [6]: 11 mg/dL
Cl [6]: 97.2 meq/L
DBIL [6]: 0.008 mg/dL
GLC [6]: 229.6 mg/dL
IP [6]: 11 mg/dL
K [6]: 5 meq/L
LDH [6]: 81 IU/L
Na [6]: 136.4 meq/L
PL [6]: 148.2 mg/dL
RALB [6]: 2.6 g/dL
TBIL [6]: 0.052 mg/dL
TC [6]: 90.2 mg/dL
TG [6]: 16.4 mg/dL
TP [6]: 5.4 g/dL
gamma-GTP [6]: 1 IU/L
TERMINAL_BW [7]: 206.6 g
APTT [7]: 16.7 s
Bas [7]: 0.4%
Eos [7]: 0.4%
Fbg [7]: 287 mg/dL
Hb [7]: 13.2 g/dL
Ht [7]: 39.8%
Lym [7]: 74%
MCH [7]: 20.8 pg
MCHC [7]: 33.3%
MCV [7]: 62.5 fL
Mono [7]: 4.8%
Neu [7]: 19.2%
PT [7]: 14.6 s
Plat [7]: 123.6 x10_4/uL
RBC [7]: 637 x10_4/ul
Ret [7]: 9.7%
WBC [7]: 96.3 x10_2/uL
KIDNEY_L [7]: 0.9 g
KIDNEY_R [7]: 0.9 g
KIDNEY_TOTAL [7]: 1.7 g
LIVER [7]: 7.1 g
ALP [7]: 1341 IU/L
AST [7]: 75.2 IU/L
BUN [7]: 41.8 mg/dL
CRE [7]: 0.2 mg/dL
Ca [7]: 10.8 mg/dL
Cl [7]: 96.4 meq/L
DBIL [7]: 0.008 mg/dL
GLC [7]: 217.4 mg/dL
IP [7]: 11.9 mg/dL
K [7]: 5.3 meq/L
LDH [7]: 85 IU/L
Na [7]: 134.6 meq/L
PL [7]: 152.4 mg/dL
RALB [7]: 2.6 g/dL
TBIL [7]: 0.052 mg/dL
TC [7]: 90.8 mg/dL
TG [7]: 22.2 mg/dL
TP [7]: 5.5 g/dL
gamma-GTP [7]: 1.4 IU/L
TERMINAL_BW [8]: 197.1 g
APTT [8]: 17.4 s
Bas [8]: 0.2%
Eos [8]: 0.8%
Fbg [8]: 374 mg/dL
Hb [8]: 13.1 g/dL
Ht [8]: 39.6%
Lym [8]: 72.8%
MCH [8]: 20.9 pg
MCHC [8]: 33.1%
MCV [8]: 63.3 fL
Mono [8]: 3.6%
Neu [8]: 22%
PT [8]: 13.7 s
Plat [8]: 142.3 x10_4/uL
RBC [8]: 625.8 x10_4/ul
Ret [8]: 9.7%
WBC [8]: 99.5 x10_2/uL
KIDNEY_L [8]: 0.8 g
KIDNEY_R [8]: 0.9 g
KIDNEY_TOTAL [8]: 1.7 g
LIVER [8]: 6.9 g
ALP [8]: 1549.8 IU/L
ALT [8]: 40.6 IU/L
AST [8]: 67.8 IU/L
BUN [8]: 10.8 mg/dL
CRE [8]: 0.2 mg/dL
Ca [8]: 10.4 mg/dL
Cl [8]: 106 meq/L
DBIL [8]: 0.012 mg/dL
GLC [8]: 167 mg/dL
IP [8]: 8.6 mg/dL
K [8]: 3.8 meq/L
LDH [8]: 78.2 IU/L
Na [8]: 143 meq/L
PL [8]: 126.4 mg/dL
RALB [8]: 2.9 g/dL
TBIL [8]: 0.054 mg/dL
TC [8]: 78 mg/dL
TG [8]: 27 mg/dL
TP [8]: 6.1 g/dL
gamma-GTP [8]: 1 IU/L
